Source: US20050222147A1, “Process for the preparation of morpholine derivatives and intermediates therefore” (priority 2000, published 2005)
Structures can show the parent of a compound that is named as a salt.

Molecular target: eosinophil chemotaxis
Test: Eosinophil chemotaxis assay (eotaxin-induced)
Type: cell-based, human
Conditions: functional pKi (fpKi)
Experimental: (b) Eosinophil Chemotaxis Assay.
Compounds were evaluated for their inhibitory effect on eosinophil chemotaxis. Eosinophils were purified from human peripheral blood by standard CD16 cell depletion using a Miltenyi cell separation column and a magnetic Super Macs magnet as previously described (Motegi & Kita, 1998; J. Immunology. 161:4340-6). Cells were re-suspended in RPMI 1640/10% FCS solution and incubated with calcein-AM (Molecular Probes) at 37° C. for 30 mins. Following incubation, the eosinophils were centrifuged at 400 g for 5 min and re-suspended in RPMI/FCS at 2.2 million/ml. Cells. were then incubated in the presence of increasing concentration of compounds (1 pM to 30 μM) at 37° C. for 30 mins. For control responses cells were incubated with RPMI/FCS only. The agonist eotaxin (either a concentration response curve or for the functional inhibition curves an EC80 concentration) was added to the lower chamber of a 96 well chemotaxis plate (5 μm filter: Receptor Technologies). Eosinophils (50 μl of 2 million/ml cells) were added to the top chamber of the filter plate and incubated at 37° C. for 45 mins. Cells remaining on top of the chemotaxis filter were removed and the number of eosinophils which had migrated were quantified by reading the plate on a fluorescent plate reader. Inhibition curves for the effect of compounds on eosinophil chemotaxis were analysed by fitting the data with a four parameter logistic equation. Functional pK1 values (fpK1) were generated using the equation below (Lazareno & Birdsall, 1995. Br. J. Pharmacol 109: 1110-9). [formula] (c) Guinea-pig Ovalbumin Model

SMILES | CCR-3 Eosinophil Chemotaxis Assay (fpKi)
CS(=O)(=O)Nc1cccc(CC(=O)NC[C@H]2CN(Cc3ccc(Cl)s3)CCO2)c1 [Example 49, N-({(2S)-4-[(5-Chlorothien-2-yl)methyl]morpholin-2-yl}methyl)-2-{3-[(methylsulfonyl)amino]phenyl]acetamide] | 8.07
O=C(Cc1ccsc1)NCC1CN(Cc2ccc(Cl)c(Cl)c2)CCO1 (stereo not drawn) [Example 32, N-{[4-(3,4-Dichlorobenzyl)morpholin-2-yl]methyl}-2-thien-3-ylacetamide] | 7.32
NS(=O)(=O)c1cccc(CC(=O)NC[C@H]2CN(Cc3ccc(Cl)c(Cl)c3)CCO2)c1 [Example 162] | 8.2
CS(=O)(=O)c1ccc(CC(=O)NCC2CN(Cc3ccc(Cl)c(Cl)c3)CCO2)cc1.O=CO (stereo not drawn) [Example 2, N-{[4-(3,4-Dichlorobenzyl)morpholin-2-yl]methyl}-2-[4-(methylsulfonyl)phenyl]acetamide salt with formic acid (1:1)] | 6.51
O=C(Cc1csc(-c2cnccn2)n1)NC[C@H]1CN(Cc2ccc(Cl)c(Cl)c2)CCO1 [Example 42, N-([(2S)-4-(3,4-Dichlorobenzyl)morpholin-2-yl]methyl}-2-(2-pyrazin-2-yl-1,3-thiazol-4-yl)acetamide] | 9.32
CS(=O)(=O)c1ccc(CC(=O)NC[C@H]2CN(Cc3ccc(Cl)c(Cl)c3)CCO2)cc1 (single isomer, unassigned) [Example 39] | 8.31
Cc1oc(-c2ccc(F)cc2)nc1CC(=O)NCC1CN(Cc2ccc(Cl)c(Cl)c2)CCO1 (stereo not drawn) [Example 41, N-{[4-(3,4-Dichlorobenzyl)morpholin-2-yl]methyl}-2-[2-(4-fluorophenyl)-5-methyl-1,3-oxazol-4-yl]acetamide] | 7.99
O=C(Cc1cc(C(F)(F)F)cc(C(F)(F)F)c1)NCC1CN(Cc2ccc(Cl)c(Cl)c2)CCO1 (stereo not drawn) [Example 17, 2-[3,5-Bis(trifluoromethyl)phenyl]-N-{[4-(3,4-dichlorobenzyl)morpholin-2-yl]methyl}acetamide] | 6.24
C[C@H]1CO[C@H](CNC(=O)Cc2ccc(Cl)cc2)CN1Cc1ccc(Cl)c(Cl)c1 (relative stereo) [Example 27, 2-(4-Chlorophenyl)-N-{[(trans)-4-(3,4-dichlorobenzyl)-5-methylmorpholin-2-yl]methyl}acetamide] | 7.39
Cc1oc(-c2ccccc2)nc1CC(=O)NC[C@H]1CN(Cc2ccc(Cl)c(Cl)c2)CCO1 [Example 54, N-{[(2S)-4-(3,4-Dichlorobenzyl)morpholin-2-yl]methyl}-2-(5-methyl-2-phenyl-1,3-oxazol-4-yl)acetamide] | 7.96
CN(C)c1ccc(CC(=O)NCC2CN(Cc3ccc(Cl)c(Cl)c3)CCO2)cc1.O=CO (stereo not drawn) [Example 12, N-{[4-(3,4-Dichlorobenzyl)morpholin-2-yl]methyl}-2-[4-(dimethylamino)phenyl]acetamide salt with formic acid (1:1)] | 6.82
O=C(Cc1cccc(F)c1)NCC1CN(Cc2ccc(Cl)c(Cl)c2)CCO1 (stereo not drawn) [Example 3, N-{[4-(3,4-Dichlorobenzyl)morpholin-2-yl]methyl}-2-(3-fluorophenyl)acetamide] | 7.15
O=C(Cc1csc(-c2cnccn2)n1)NCC1CN(Cc2ccc(Cl)c(Cl)c2)CCO1 (stereo not drawn) [Example 37, N-{[4-(3,4-Dichlorobenzyl)morpholin-2-yl]methyl}-2-(2-pyrazin-2-yl-1,3-thiazol-4-yi)acetamide] | 7.97

Molecular target: T1, CCR-3 (Homo sapiens, UniProt P51677)
T1 construct: expressed in transfected cells
T1 sequence (P51677 1-355): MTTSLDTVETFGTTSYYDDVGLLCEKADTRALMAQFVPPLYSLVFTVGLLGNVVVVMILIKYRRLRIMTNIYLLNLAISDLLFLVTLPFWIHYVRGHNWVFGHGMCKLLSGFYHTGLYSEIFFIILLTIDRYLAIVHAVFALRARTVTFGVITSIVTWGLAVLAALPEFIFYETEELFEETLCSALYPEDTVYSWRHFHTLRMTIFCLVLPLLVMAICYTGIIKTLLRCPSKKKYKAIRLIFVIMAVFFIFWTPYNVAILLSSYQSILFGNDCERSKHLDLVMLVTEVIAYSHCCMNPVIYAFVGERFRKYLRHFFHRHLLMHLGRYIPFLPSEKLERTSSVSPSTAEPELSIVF
Test: CCR-3 competition binding SPA (scintillation proximity assay)
Conditions: read-out: CCR-3 Binding Assay (pIC50) (converted)
Experimental: A CCR-3 competition binding SPA (scintillation proximity assay) was used to assess the affinity of novel compounds for CCR-3. Membranes prepared from K562 cells stably expressing CCR-3 (2.51 μg/well) were mixed with 0.25 mg/well wheat-germ agglutinin SPA beads (Amersham) and incubated in binding buffer (HEPES 50 mM, CaCl2 1 mM, MgCl2 5 mM, 0.5% BSA) at 4° C. for 1.5 hr. Following incubation, 20 pM of [^125I) eotaxin (Amersham) and increasing concentrations of compound (1 pM to 30 μM) were added and incubated in a 96 well plate for 2 hr at 22° C. then counted on a Microbeta plate counter. The total assay volume was 100 μl. Competition binding data were analysed by fitting the data with a four parameter logistic equation. Data are presented as the mean pIC50 values (negative logarithm of the concentration of compound which inhibits [^125I] eotaxin binding by 50%) from at least two experiments.

SMILES | IC50
O=C(Cn1nnc(-c2ccccc2)n1)NC[C@H]1CN(Cc2ccc(Cl)c(Cl)c2)CCO1 [Example 44] | 6.76 nM
Cc1nn(CC(=O)NCC2CN(Cc3ccc(Cl)c(Cl)c3)CCO2)c(C)c1Br (stereo not drawn) [Example 35] | 155 nM
CS(=O)(=O)Nc1ccc(CC(=O)NCC2CN(Cc3ccc(F)c(F)c3)CCO2)cc1 (stereo not drawn) [Example 45] | 13.2 nM
O=C(Cc1cc(Cl)ccc1Cl)NCC1CN(Cc2ccc(Cl)c(Cl)c2)CCO1 (stereo not drawn) [Example 13, N-{[4-(3,4-Dichlorobenzyl)morpholin-2-yl]methyl}-2-(2,5-dichlorophenyl)acetamide] | 240 nM
NC(=O)c1ccc(CC(=O)NCC2CN(Cc3ccc(Cl)c(Cl)c3)CCO2)cc1 (stereo not drawn) [Example 10, 4-[2-({[4-(3,4Dichlorobenzyl)morpholin-2-yl]methyl}amino)-2-oxoethyl]benzamide] | 158 nM
Cc1cc(F)ccc1CC(=O)NCC1CN(Cc2ccc(Cl)c(Cl)c2)CCO1 (stereo not drawn) [Example 19, N-{[4-(3,4-Dichlorobenzyl)morpholin-2-yl]methyl}-2-(4-fluoro-2-methylphenyl)acetamide] | 832 nM
NS(=O)(=O)c1cccc(CC(=O)NC[C@H]2CN(Cc3ccc(Cl)c(Cl)c3)CCO2)c1 [Example 162] | 12.6 nM
CN(C)S(=O)(=O)c1ccc(CC(=O)NCC2CN(Cc3ccc(Cl)c(Cl)c3)CCO2)cc1 (stereo not drawn) [Example 7, N-{[4-(3,4-Dichlorobenzyl)morpholin-2-yl]methyl}-2-{4-[(dimethylamino)sulfonyl]phenyl}acetamide salt with formic acid (1:1)] | 15.1 nM
COc1ccc2[nH]c(C)c(CC(=O)NCC3CN(Cc4ccc(Cl)c(Cl)c4)CCO3)c2c1 (stereo not drawn) [Example 31, N-{[4-(3,4-Dichlorobenzyl)morpholin-2-yl]methyl}-2-(5-methoxy-2-methyl-1H-indol-3-yl)acetamide] | 513 nM
Cc1oc(-c2ccccc2)nc1CC(=O)NC[C@@H]1CN(Cc2ccc(Cl)c(Cl)c2)CCO1 [Example 55, N-{[(2R)-4-(3,4-Dichlorobenzyl)morpholin-2-yl]methyl}-2-(5-methyl-2-phenyl-1,3-oxazol-4-yl)acetamide] | 398 nM
O=C(Cc1ccco1)NCC1CN(Cc2ccc(Cl)c(Cl)c2)CCO1 (stereo not drawn) [Example 38, N-{[4-(3,4-Dichlorobenzyl)morpholin-2-yl]methyl}-2-(2-furyl)acetamide] | 100 nM
COc1ccc(CC(=O)NCC2CN(Cc3ccc(Cl)c(Cl)c3)CCO2)cc1 (stereo not drawn) [Example 22, N-{[4-(3,4-Dichlorobenzyl)morpholin-2-yl]methyl}-2-(4-methoxyphenyl)acetamide] | 110 nM
C[C@H]1CO[C@H](CNC(=O)Cc2ccccc2)CN1Cc1ccc(Cl)c(Cl)c1 (relative stereo) [Example 25, N-{[(trans)4-(3,4-Dichlorobenzyl)-5-methylmorpholin-2-yl]methyl}-2-phenylacetamide] | 60.3 nM
O=C(Cc1cccc(Cl)c1)NCC1CN(Cc2ccc(Cl)c(Cl)c2)CCO1 (stereo not drawn) [Example 8, 2-(3-Chlorophenyl)-N-{[4-(3,4-dichlorobenzyl)morpholin-2-yl]methyl}acetamide] | 145 nM
Cc1oc(-c2ccccc2)nc1CC(=O)NC[C@H]1CN(Cc2ccc(Cl)c(Cl)c2)CCO1 [Example 54, N-{[(2S)-4-(3,4-Dichlorobenzyl)morpholin-2-yl]methyl}-2-(5-methyl-2-phenyl-1,3-oxazol-4-yl)acetamide] | 24 nM
O=C(Cc1cccc(C(=O)NC2CC2)c1)NCC1CN(Cc2ccc(Cl)c(Cl)c2)CCO1 (stereo not drawn) [Example 53, N-Cyclopropyl-3-[2-({[(3,4-dichlorobenzyl)morpolin-2-yl]methyl}amino)-2-oxoethyl]benzamide] | 4.07 nM
O=C(Cc1ccc(F)c(F)c1)NCC1CN(Cc2ccc(Cl)c(Cl)c2)CCO1 (stereo not drawn) [Example 6, N-{[4-(3,4-Dichlorobenzyl)morpholin-2-yl]methyl}-2-(3,4-difluorophenyl)acetamide] | 138 nM
CS(=O)(=O)Nc1ccc(CC(=O)NC[C@H]2CN(Cc3ccc(F)cc3)CCO2)cc1 [Example 46, N-{[(2S)-4-(4-Fluorobenzyl)morpholin-2-yl]methyl}-2-{4-[(methylsulfonyl)amino]phenyl}acetamide] | 72.4 nM
CSc1ccc(CC(=O)NCC2CN(Cc3ccc(Cl)c(Cl)c3)CCO2)cc1 (stereo not drawn) [Example 5, N-{[4-(3,4-Dichlorobenzyl)morpholin-2-yl]methyl}-2-[4-(methylthio)phenyl]acetamide] | 77.6 nM
O=C(Cc1ccc(C(F)(F)F)cc1)NCC1CN(Cc2ccc(Cl)c(Cl)c2)CCO1 (stereo not drawn) [Example 14] | 339 nM
